Key:
[1] = molecular target: T1, p110α/p85α (Homo sapiens, UniProt P42336); experiment: HDX-MS of full-length p110α/p85α; conditions: wild-type p110α/p85α
T1 construct: Full-length p110α was expressed in a complex with full-length p85α (for biochemistry and HDX-MS); 6xHis followed by TEV protease site (N); made in house; host or cells: Spodoptera frugiperda Sf9 (baculovirus co-infection; plasmids OP831 and OP809)
Text: The inventors used hydrogen-deuterium exchange mass spectrometry (HDX-MS) which allows the investigation of compound binding sites and conformational changes using soluble, native proteins, and which has been key to unravel the molecular mechanisms of physiological activation of class IA PI3Ks. Class IA PI3K activation occurs through de-inhibition of the auto-inhibited p85/p110 complex, via the release of inhibitory interactions between p85 and p110, upon binding of the complex to bis-phosphorylated motifs in membrane-resident receptors or cytosolic adaptors. […]
In total, three biological replicates, i.e., three separate protein preparations, each with exchange experiments were carried out in triplicate were conducted. […] A “blank” sample of protein dilution buffer with quench was run between samples, and carry-over of peptides was routinely monitored. […] Data was analysed using Protein Lynx Global Server (Waters) and DynamX (Waters). […] Data quality, experiment design, and reporting of data meets the criteria as determined by the HDX-MS community (Masson, G. R. et al. Nat Methods 16, 595-602 (2019)). […]

[2] = system: isolated rat hearts; experiment: Langendorff ex vivo perfused rat heart model of IRI; conditions: 5 μM
[3] = system: PIP3 levels in MEFs; experiment: PIP3 measurement by mass spectrometry in MEFs; format: cell-based, mouse
Procedure: FIG. 21. a, MEFs were stimulated for the indicated time points with 1938 (5 μM) or for 2 min with PDGF (20 ng/ml) or insulin (100 nM), followed by lipid extraction and PIP3 measurement by mass spectrometry. b, MEFs were stimulated for 2 min with increasing doses of 1938 or PDGF, followed by lipid extraction and PIP3 measurement by mass spectrometry. c, A549 cells were stimulated for 2 min with increasing doses of 1938 or insulin, or 10 ng/ml PDGF, followed by lipid extraction and PIP3 measurement by mass spectrometry.
Class I PI3Ks phosphorylate the PtdIns(4,5)P2 lipid in the plasma membrane to generate PtdIns(3,4,5)P3 (or PIP3), which can be converted to PtdIns(3,4)P2 by the action of 5-phosphatases. Treatment of MEFs (Mouse Embryonic Fibroblasts) with 1938 very rapidly (within 30 sec) led to increased PIP3 levels, as assessed by mass spectrometry, maxing at 5 min and maintained at this maximum level for up to 40 min (FIG. 21a). […] The observation of different levels of PIP3 induced by these growth factors is in line with the notion that PI3Kα is the sole mediator of PIP3 production downstream of insulin. This contrasts with PDGF, which activates both PI3Kα and PI3Kβ, with the latter PI3K isoform contributing substantially to acute PDGF-stimulated PIP3 generation in MEFs, correlating with the higher PIP3 levels induced by this agonist compared to insulin and 1938 (FIG. 21a). In the same experiment as in FIG. 21a, clear PI(3,4)P2 signal was detected in MEFs upon PDGF stimulation but not with 1938 (at 5 μM). This is consistent with a higher threshold for detection of PI(3,4)P2 compared to PIP3 by mass spectrometry (due primarily to background contamination, as discussed by Malek et al.), together with the relatively lower PI3K activation by 1938 compared to a high dose of PDGF, as is also illustrated by the experiments shown below.
These maximal 1938-induced PIP3 levels are below those required to give rise to sufficient PI(3,4)P2 to be detectable by mass spectrometry, a conclusion also supported by the observation that substantial levels of PIP3 induced by lower doses of PDGF (e.g. 0.5 ng/ml) were also not sufficient to give rise to levels of PI(3,4)P2 detectable by mass. […] A strong PIP3 response was also observed with insulin in these cells, with no PIP3 induced by PDGF, in line with the absence of this receptor in epithelial cells, including in A549.

T1 sequence (P42336 whole entry): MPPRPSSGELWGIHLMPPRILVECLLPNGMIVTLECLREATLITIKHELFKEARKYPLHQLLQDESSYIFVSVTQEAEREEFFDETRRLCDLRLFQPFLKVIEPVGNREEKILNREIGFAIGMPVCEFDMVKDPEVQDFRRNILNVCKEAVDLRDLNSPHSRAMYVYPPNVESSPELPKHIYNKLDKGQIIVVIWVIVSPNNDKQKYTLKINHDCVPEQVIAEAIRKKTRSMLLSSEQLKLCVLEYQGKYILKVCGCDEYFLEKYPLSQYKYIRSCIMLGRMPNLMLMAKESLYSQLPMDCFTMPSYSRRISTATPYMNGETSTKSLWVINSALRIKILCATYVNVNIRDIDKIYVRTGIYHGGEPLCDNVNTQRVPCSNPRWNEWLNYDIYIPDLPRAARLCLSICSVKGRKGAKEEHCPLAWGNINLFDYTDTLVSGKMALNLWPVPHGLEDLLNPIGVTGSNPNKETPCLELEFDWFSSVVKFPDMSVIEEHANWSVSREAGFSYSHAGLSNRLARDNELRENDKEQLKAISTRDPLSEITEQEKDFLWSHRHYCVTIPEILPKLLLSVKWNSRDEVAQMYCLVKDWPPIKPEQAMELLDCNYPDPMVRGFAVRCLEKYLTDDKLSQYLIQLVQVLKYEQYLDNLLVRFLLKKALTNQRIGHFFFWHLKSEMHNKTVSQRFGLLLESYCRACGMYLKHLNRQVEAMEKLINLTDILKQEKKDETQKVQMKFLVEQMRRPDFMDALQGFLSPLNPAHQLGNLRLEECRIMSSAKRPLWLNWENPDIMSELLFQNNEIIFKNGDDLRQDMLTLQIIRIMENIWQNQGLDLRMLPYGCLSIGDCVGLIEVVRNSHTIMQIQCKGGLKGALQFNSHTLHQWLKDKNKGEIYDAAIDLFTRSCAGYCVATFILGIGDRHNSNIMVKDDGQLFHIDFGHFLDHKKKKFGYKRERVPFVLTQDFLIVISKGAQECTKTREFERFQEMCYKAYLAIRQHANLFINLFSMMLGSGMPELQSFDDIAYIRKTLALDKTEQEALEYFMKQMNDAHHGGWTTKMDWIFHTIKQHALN
T1 sequence (P27986 whole entry partner): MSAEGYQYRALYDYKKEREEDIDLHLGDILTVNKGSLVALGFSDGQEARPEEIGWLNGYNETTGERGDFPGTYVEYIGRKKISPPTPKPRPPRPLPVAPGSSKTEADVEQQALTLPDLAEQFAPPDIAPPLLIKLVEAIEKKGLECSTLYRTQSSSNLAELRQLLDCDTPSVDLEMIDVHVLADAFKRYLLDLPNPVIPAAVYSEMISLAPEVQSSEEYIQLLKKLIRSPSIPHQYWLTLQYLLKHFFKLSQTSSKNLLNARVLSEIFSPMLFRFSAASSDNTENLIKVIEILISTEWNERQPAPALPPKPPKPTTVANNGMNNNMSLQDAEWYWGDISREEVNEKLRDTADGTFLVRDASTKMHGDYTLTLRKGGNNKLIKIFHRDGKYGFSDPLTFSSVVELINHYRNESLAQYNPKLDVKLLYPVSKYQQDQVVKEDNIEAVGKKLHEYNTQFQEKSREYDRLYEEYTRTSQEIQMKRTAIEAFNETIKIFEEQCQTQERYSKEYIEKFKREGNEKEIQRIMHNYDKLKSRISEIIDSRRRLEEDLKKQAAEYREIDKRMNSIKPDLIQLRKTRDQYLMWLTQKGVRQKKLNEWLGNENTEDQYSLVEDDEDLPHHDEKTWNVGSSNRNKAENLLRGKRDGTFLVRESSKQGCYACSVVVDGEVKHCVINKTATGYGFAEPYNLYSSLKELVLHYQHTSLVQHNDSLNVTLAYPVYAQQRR

- Movement of the adapter-binding domain [1]: −/?
- EC50 ([3]; Mus musculus, 2 min, fixed 2 min time point, read-out: EC50 of PIP3 induction): ~5 µM
Compound: CCN1CCN(c2ccc(Nc3cc(Nc4cccc5c4N(C(C)=O)CC5)ccn3)cc2)CC1 [Example 1938]
- pAKT S473 in perfused rat hearts [2]: increase in generation of pAKTS473
- tissue protection from IRI ([2]; administration during first 15 min of reperfusion): substantial tissue protection from IRI
- concentration at which PIP3 induction plateaus ([3]; 2 min): around 10 μM
- duration of maximum PIP3 level ([3]; 1938 5 μM): up to 40 min
- time of maximum PIP3 level ([3]; 1938 5 μM): 5 min
- time to increased PIP3 levels ([3]; 1938 5 μM): ≤ 30 s

Source: patent publication US20250263404A1, “AMINOPYRIDINES AS ACTIVATORS OF PI3 KINASE” (UCL Business Ltd, priority 2021, published 2025)
